Test system: lashes and adjacent hairs of patients having glaucoma
Assay: Clinical observation of lashes and adjacent hairs in glaucoma patients treated in one eye
Assay type: in vivo, human
From the text: In the course of treating patients having glaucoma, treatment may only be appropriate in one eye. […] The lash appearance on the lids of the treated eyes would have appeared quite attractive if it represented a bilateral phenomenon. As a result of its asymmetric nature, the long lashes on one side could be construed as disturbing from a cosmetic standpoint. A systemic examination was preformed as a result of the asymmetric phenomenon. It soon became apparent that this altered appearance was not an isolated finding.
The changes in the lashes were apparent on gross inspection in several patients once attention was focused on the issue. In those with light colored hair and lashes, the differences were only seen easily with the aid of the high magnification and lighting capabilities of the slit lamp biomicroscope. In the course of glaucoma follow-up examination, attention is generally immediately focused on the eye itself. As a result of the high power magnification needed only one eye is seen at a time and the eye is seen at a high enough power that the lashes are not in focus. At these higher powers, any lash asymmetry between the two eyes is not likely to be noticed except by careful systematic comparison of the lashes and adjacent hairs of the eyelids of the two eyes. […]

CCNC(=O)CCC/C=C\C[C@@H]1[C@@H](/C=C/[C@@H](O)CCc2ccccc2)[C@H](O)C[C@@H]1O [bimatoprost]
lash appearance, treated eye versus non-treated eye (a patient treated in one eye): longer, thicker, and fuller in the treated eye than in the non-treated eye | differences in lashes and adjacent hairs of the treated side (all patients taking the drug on a unilateral basis for longer than 6 months): Definite differences could be identified to varying degrees

From patent publication US20090233921A1, “THERAPEUTIC CYCLOPENTANE DERIVATIVES” (ALLERGAN, INC., priority 2008, published 2009)
